Assay results from ChEMBL document CHEMBL3232787, “Lipopeptides from the tropical marine cyanobacterium Symploca sp” (J Nat Prod, 2014).

Tests used:
HCT-116 = assay: Cytotoxicity against human HCT116 cells after 120 hrs by hemocytometer; format: functional, cell-based; settings: HCT-116, 120 h
KB = assay: Cytotoxicity against human KB cells; format: functional, cell-based

Row | Compound | IC50 (HCT-116) [µM] | IC50 (KB) [nM]
1 | CC[C@H](C)[C@@H](NC(=O)[C@H](CCC(N)=O)N(C)C(=O)[C@H](OC(=O)[C@@H](O)C(C)C)C(C)C)C(=O)N[C@@H](C)C(=O)N(C)[C@H](Cc1ccccc1)C(=O)N1CCC[C@H]1C(=O)OC | > 25 | –
2 | CC[C@H](C)[C@H](NC(=O)[C@H](CCC(N)=O)N(C)C(=O)[C@H](OC(=O)[C@@H](O)C(C)C)C(C)C)C(=O)N[C@@H](C)C(=O)N[C@H](Cc1ccccc1)C(=O)N1CCC[C@H]1C(=O)OC | 25 | –
3 | CC[C@H](C)[C@H](O)C(=O)N[C@@H](CC(C)C)C(=O)N(C)[C@@H](CCC(N)=O)C(=O)N[C@H](C(=O)NCC(=O)N(C)[C@H](Cc1ccccc1)C(=O)N1CCC[C@H]1C(=O)OC)[C@@H](C)CC [TASIAMIDE] | – | 480
